Experimental data reported in ChEMBL document CHEMBL1909046, “DrugMatrix in vitro pharmacology data”.

What was measured:
[1] = target: T1, Nitric oxide synthase, inducible (Mus musculus, UniProt P29477); parameters: species or system Escherichia coli;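 note: inhibition of iNOS enzyme activity measured with L-arginine as substrate; in other assays of this panel Not Active means under 50% inhibition at 10 µM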
T1 sequence (P29477 whole entry): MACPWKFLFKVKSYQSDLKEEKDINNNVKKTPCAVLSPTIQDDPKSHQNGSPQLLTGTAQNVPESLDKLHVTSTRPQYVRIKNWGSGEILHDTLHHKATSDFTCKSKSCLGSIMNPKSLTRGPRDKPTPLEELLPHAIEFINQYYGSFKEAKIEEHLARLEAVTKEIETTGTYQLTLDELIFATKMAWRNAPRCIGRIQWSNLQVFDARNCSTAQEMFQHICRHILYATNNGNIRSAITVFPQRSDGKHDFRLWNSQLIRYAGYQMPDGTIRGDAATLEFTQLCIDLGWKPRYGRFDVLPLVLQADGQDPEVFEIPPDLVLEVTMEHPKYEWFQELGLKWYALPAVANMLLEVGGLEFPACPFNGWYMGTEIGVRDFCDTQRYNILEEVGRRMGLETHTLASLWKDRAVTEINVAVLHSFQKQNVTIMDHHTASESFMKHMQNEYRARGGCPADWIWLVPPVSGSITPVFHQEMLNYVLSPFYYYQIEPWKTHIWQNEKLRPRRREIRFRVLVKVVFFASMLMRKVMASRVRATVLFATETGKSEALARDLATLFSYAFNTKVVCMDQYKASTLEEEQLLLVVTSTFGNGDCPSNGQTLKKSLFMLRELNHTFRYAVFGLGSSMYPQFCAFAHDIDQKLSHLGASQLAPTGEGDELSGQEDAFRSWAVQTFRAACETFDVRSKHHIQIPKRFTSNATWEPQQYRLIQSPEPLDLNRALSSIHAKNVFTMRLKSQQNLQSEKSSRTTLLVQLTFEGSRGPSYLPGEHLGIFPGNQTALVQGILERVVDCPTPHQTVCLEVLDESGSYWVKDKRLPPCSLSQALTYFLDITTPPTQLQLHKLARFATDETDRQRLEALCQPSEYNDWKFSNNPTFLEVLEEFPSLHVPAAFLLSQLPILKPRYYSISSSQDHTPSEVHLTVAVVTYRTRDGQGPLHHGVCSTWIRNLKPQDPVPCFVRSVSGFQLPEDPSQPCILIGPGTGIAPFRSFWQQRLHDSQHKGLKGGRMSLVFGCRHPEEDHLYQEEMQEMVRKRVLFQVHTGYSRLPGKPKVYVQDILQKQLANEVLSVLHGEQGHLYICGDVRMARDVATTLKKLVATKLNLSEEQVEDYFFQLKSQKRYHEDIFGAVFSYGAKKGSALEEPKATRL

[2] = DRUGMATRIX: Atrial Natriuretic Factor (ANF) radioligand binding (ligand: [125I] ANF (rat)); assay type: cell membranes, Cavia porcellus, Dunkin-Hartley, Adrenal gland, Membrane; conditions: Not Active = under 50% inhibition at 10 µM
Melanocortin receptor 5 = Melanocortin receptor 5 (Homo sapiens, UniProt P33032); assay type: cell membranes, HEK293, Membrane; note: in other assays of this panel Not Active means under 50% inhibition at 10 µM
Sequence of Melanocortin receptor 5 (P33032 whole entry): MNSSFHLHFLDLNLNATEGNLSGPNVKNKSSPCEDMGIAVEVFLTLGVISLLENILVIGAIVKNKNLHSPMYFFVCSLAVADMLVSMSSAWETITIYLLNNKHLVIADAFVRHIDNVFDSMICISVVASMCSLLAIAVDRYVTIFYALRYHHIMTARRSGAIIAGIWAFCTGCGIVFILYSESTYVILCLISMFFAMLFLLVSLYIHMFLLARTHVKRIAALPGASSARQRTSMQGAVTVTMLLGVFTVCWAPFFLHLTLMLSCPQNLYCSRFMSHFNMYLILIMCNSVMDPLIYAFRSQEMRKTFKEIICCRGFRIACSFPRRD

[3] = target: C-C chemokine receptor type 2 (Homo sapiens, UniProt P41597); assay type: cell membranes, Membrane; conditions: cho-k1; note: in other assays of this panel Not Active means under 50% inhibition at 10 µM
Sequence of C-C chemokine receptor type 2 (P41597 whole entry): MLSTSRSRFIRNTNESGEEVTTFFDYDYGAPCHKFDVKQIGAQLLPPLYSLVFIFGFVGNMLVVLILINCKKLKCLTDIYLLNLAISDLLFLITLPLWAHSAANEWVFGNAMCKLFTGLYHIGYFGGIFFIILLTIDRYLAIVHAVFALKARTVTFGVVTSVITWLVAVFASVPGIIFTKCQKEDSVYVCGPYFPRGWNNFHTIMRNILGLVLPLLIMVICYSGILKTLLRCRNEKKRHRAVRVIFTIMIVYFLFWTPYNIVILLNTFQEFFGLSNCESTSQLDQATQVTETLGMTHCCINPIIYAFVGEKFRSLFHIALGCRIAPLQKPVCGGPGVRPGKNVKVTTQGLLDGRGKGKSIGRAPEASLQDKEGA

[4] = DRUGMATRIX: Platelet-Derived Growth Factor (PDGF) radioligand binding (ligand: [125I] PDGF); assay type: cell-based; conditions: nih3t3; Not Active = under 50% inhibition at 10 µM
[5] = target: Sodium-dependent noradrenaline transporter (Homo sapiens, UniProt P23975); assay: DRUGMATRIX: Norepinephrine Transporter radioligand binding (ligand: [125I] RTI-55); assay type: cell membranes, MDCK, Membrane; conditions: Not Active = under 50% inhibition at 10 µM
Sequence of Sodium-dependent noradrenaline transporter (P23975 whole entry): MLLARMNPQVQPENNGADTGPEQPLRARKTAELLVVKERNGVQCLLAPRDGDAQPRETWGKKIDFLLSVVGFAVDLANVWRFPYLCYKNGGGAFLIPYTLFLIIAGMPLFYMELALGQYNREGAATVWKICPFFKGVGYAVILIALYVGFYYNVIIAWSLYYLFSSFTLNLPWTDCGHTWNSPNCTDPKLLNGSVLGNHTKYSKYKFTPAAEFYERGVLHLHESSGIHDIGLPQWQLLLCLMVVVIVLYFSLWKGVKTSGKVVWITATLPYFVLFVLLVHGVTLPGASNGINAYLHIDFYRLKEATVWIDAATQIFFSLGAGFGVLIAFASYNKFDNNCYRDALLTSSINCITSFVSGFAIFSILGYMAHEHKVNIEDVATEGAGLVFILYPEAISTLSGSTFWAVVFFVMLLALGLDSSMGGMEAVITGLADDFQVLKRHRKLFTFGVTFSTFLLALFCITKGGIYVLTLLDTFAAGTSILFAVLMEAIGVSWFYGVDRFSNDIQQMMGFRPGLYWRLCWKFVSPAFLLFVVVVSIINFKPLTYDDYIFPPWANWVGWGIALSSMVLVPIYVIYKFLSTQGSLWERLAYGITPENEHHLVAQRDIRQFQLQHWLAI

[6] = target: Receptor tyrosine-protein kinase erbB-2 (Homo sapiens, UniProt P04626); assay: biochemical; assay type: cell-based, Insect cells;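 note: inhibition of HER2 kinase enzyme activity, measured with Poly(Glu:Tyr) as the phosphorylation substrate; in other assays of this panel Not Active means under 50% inhibition at 10 µM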

| Molecule | IC50 [1] | IC50 [2] | Ki [2] | IC50 (Melanocortin receptor 5; hek293) | IC50 [3] | IC50 [4] | Ki [4] | IC50 ([5]; mdck) | IC50 ([6]; insect cells) | IC50 ([6]; read-out: IC50) | IC50 ([5]; read-out: IC50) | Ki ([5]; read-out: Ki) | Ki [1] | Ki (Melanocortin receptor 5; hek293) | Ki [3] | Ki ([5]; mdck) | Ki ([6]; insect cells) | IC50 (Melanocortin receptor 5; read-out: IC50) | Ki (Melanocortin receptor 5; read-out: Ki) |
| --- | --- | --- | --- | --- | --- | --- | --- | --- | --- | --- | --- | --- | --- | --- | --- | --- | --- | --- | --- |
| CC(c1cc2ccccc2s1)N(O)C(N)=O (stereo unspecified) [ZILEUTON] | Not Active | Not Active | Not Active | Not Active | Not Active | Not Active | Not Active | Not Active | Not Active | – | – | – | – | – | – | – | – | – | – |
| O=C1Nc2ccc(Cl)cc2C(c2ccccc2Cl)=NC1O (stereo unspecified) [LORAZEPAM] | Not Active | Not Active | Not Active | Not Active | Not Active | Not Active | Not Active | Not Active | Not Active | – | – | – | – | – | – | – | – | – | – |
| CCN(CC)CCOc1ccc(/C(=C(/Cl)c2ccccc2)c2ccccc2)cc1 [ENCLOMIPHENE] | Not Active | – | – | Not Active | Not Active | – | – | – | – | 1.67 µM | – | – | – | – | – | – | – | – | – |
| CC(C)Cc1ccc([C@@H](C)C(=O)O)cc1 [(R)-IBUPROPHEN] | Not Active | Not Active | Not Active | Not Active | Not Active | Not Active | Not Active | Not Active | Not Active | – | – | – | – | – | – | – | – | – | – |
| O=C(Nc1ccc(Br)cc1)c1cc(Br)cc(Br)c1O [TRIBROMSALAN] | Not Active | Not Active | Not Active | Not Active | Not Active | Not Active | Not Active | Not Active | – | 5.97 µM | – | – | – | – | – | – | – | – | – |
| CN(C/C=C/C#CC(C)(C)C)Cc1cccc2ccccc12 [TERBINAFINE] | Not Active | Not Active | Not Active | Not Active | Not Active | Not Active | Not Active | – | Not Active | – | 4.13 µM | 4.1 µM | – | – | – | – | – | – | – |
| Cn1c(=O)c2nc[nH]c2n(C)c1=O.O [THEOPHYLLINE] | Not Active | Not Active | Not Active | Not Active | Not Active | Not Active | Not Active | Not Active | Not Active | – | – | – | – | – | – | – | – | – | – |
| CC(C)NCC(O)c1ccc(NS(C)(=O)=O)cc1 (stereo unspecified) [SOTALOL] | Not Active | Not Active | Not Active | Not Active | Not Active | Not Active | Not Active | Not Active | Not Active | – | – | – | – | – | – | – | – | – | – |
| CO[C@@H]1[C@@H](OC)[C@H](C)[C@@](O)(CC(=O)O)O[C@H]1[C@H](C)[C@H]1O[C@@]2(CC[C@@](C)([C@H]3CC[C@@](C)([C@@H]4O[C@@H]([C@H]5O[C@](C)(O)[C@H](C)C[C@@H]5C)C[C@@H]4O[C@@H]4C[C@H](OC)[C@@H](OC)[C@H](C)O4)O3)O2)C[C@H](O)[C@H]1C [MADURAMICIN ACID] | Not Active | Not Active | Not Active | Not Active | Not Active | Not Active | Not Active | Not Active | Not Active | – | – | – | – | – | – | – | – | – | – |
| SODIUM ORTHOVANAD | Not Active | Not Active | Not Active | Not Active | Not Active | Not Active | Not Active | Not Active | Not Active | – | – | – | Not Active | Not Active | Not Active | Not Active | Not Active | – | – |
| Cc1cccc(C)c1OCC(C)N (stereo unspecified) [MEXILETINE] | Not Active | Not Active | Not Active | Not Active | Not Active | Not Active | Not Active | Not Active | Not Active | – | – | – | – | – | – | – | – | – | – |
| CC(C)NCC(O)c1ccc(O)c(O)c1 (stereo unspecified) [ISOPROTERENOL] | Not Active | Not Active | Not Active | Not Active | Not Active | Not Active | Not Active | Not Active | Not Active | – | – | – | – | – | – | – | – | – | – |
| NC1CCN(c2nc3c(cc2F)c(=O)c(C(=O)O)cn3-c2ccc(F)cc2F)C1 (stereo unspecified) [TOSUFLOXACIN] | Not Active | Not Active | Not Active | Not Active | Not Active | Not Active | Not Active | Not Active | Not Active | – | – | – | – | – | – | – | – | – | – |
| COc1ccc(CCN(C)CCCC(C#N)(c2ccc(OC)c(OC)c2)C(C)C)cc1OC (stereo unspecified) | Not Active | Not Active | Not Active | Not Active | Not Active | Not Active | Not Active | – | Not Active | – | – | – | – | – | – | – | – | – | – |
| CN[C@H]1CC[C@@H](c2ccc(Cl)c(Cl)c2)c2ccccc21 [SERTRALINE] | Not Active | – | – | – | Not Active | – | – | – | Not Active | – | – | – | – | – | – | – | – | 4.6 µM | 4.31 µM |
| O=C(Oc1ccccc1C(=O)O)c1ccccc1O [SALSALATE] | Not Active | Not Active | Not Active | Not Active | Not Active | Not Active | Not Active | Not Active | Not Active | – | – | – | – | – | – | – | – | – | – |
| NC(=O)N1C(=O)/C(=C(\O)c2cccs2)c2cc(Cl)ccc21 [TENIDAP] | Not Active | Not Active | Not Active | Not Active | Not Active | Not Active | Not Active | Not Active | Not Active | – | – | – | – | – | – | – | – | – | – |
| O=C1C(CC[S+]([O-])c2ccccc2)C(=O)N(c2ccccc2)N1c1ccccc1 (stereo unspecified) [SULFINPYRAZONE] | Not Active | Not Active | Not Active | Not Active | Not Active | Not Active | Not Active | Not Active | Not Active | – | – | – | – | – | – | – | – | – | – |
| C[C@H]1C[C@@H]2[C@H]([C@@H](O)C[C@@]3(C)[C@H]2CC[C@]3(O)C(=O)CO)[C@@]2(C)C=CC(=O)C=C12 [METHYLPREDNISOLONE] | Not Active | Not Active | Not Active | Not Active | Not Active | Not Active | Not Active | Not Active | Not Active | – | – | – | – | – | – | – | – | – | – |
| N#Cc1ccc(C(c2ccc(C#N)cc2)n2cncn2)cc1 [LETROZOLE] | Not Active | Not Active | Not Active | Not Active | Not Active | Not Active | Not Active | Not Active | Not Active | – | – | – | – | – | – | – | – | – | – |
| Fc1ccc(C(c2ccc(F)cc2)N2CCN(C/C=C/c3ccccc3)CC2)cc1 [FLUNARIZINE] | Not Active | – | – | Not Active | Not Active | – | – | – | Not Active | – | 1.34 µM | 1.33 µM | – | – | – | – | – | – | – |
| COc1cc2nc(N3CCN(C(=O)C4CCCO4)CC3)nc(N)c2cc1OC (stereo unspecified) [TERAZOSIN] | Not Active | Not Active | Not Active | Not Active | Not Active | Not Active | Not Active | Not Active | Not Active | – | – | – | – | – | – | – | – | – | – |
| CN(C)CCOC(c1ccccc1)c1ccccc1 [DIPHENHYDRAMINE] | Not Active | – | – | Not Active | Not Active | – | – | – | Not Active | – | – | – | – | – | – | – | – | – | – |
| CNCCC(Oc1ccc(C(F)(F)F)cc1)c1ccccc1 (stereo unspecified) [FLUOXETINE] | Not Active | – | – | Not Active | Not Active | – | – | – | Not Active | – | – | – | – | – | – | – | – | – | – |
| Cc1ccc(NC(=O)c2ccc(CN3CCN(C)CC3)cc2)cc1Nc1nccc(-c2cccnc2)n1 [IMATINIB] | Not Active | – | – | Not Active | Not Active | – | – | Not Active | – | – | – | – | – | – | – | – | – | – | – |
| Clc1ccc(COC(Cn2ccnc2)c2ccc(Cl)cc2Cl)cc1 (stereo unspecified) [ECONAZOLE] | Not Active | – | – | – | Not Active | – | – | – | – | 13.9 µM | – | – | – | – | – | – | – | 39.5 µM | 37.1 µM |
| CC(C)Oc1ccc2c(=O)c(-c3ccccc3)coc2c1 [IPRIFLAVONE] | Not Active | Not Active | Not Active | Not Active | Not Active | Not Active | Not Active | – | Not Active | – | – | – | – | – | – | – | – | – | – |
